Measured values reported in US20110086834A1, “ALKYNYL ALCOHOLS AS KINASE INHIBITORS” (AMGEN INC., priority 2008, published 2011).

What follows are compounds tested against T1, NIK (Homo sapiens, UniProt Q99558) (assay: homogenous time resolved fluorescence (HTRF) assay for NIK Ki measurement). Settings: not given.
T1 construct: Both assays utilize a truncated form of NIK containing only the catalytic domain; made in house; host or cells: baculovirus expression system (insect cells implied)
Assay type: biochemical
Protocol: Two formats of biochemical assays are implemented: (1) chemiluminescent (CL) assay for NIK IC50 determination; (2) homogenous time resolved fluorescence (HTRF) assay for NIK Ki measurement. […] The NIK proteins are purified with baculovirus expression system and further biotinylated with N-hydroxysuccinamide biotin ester (Sigma). […] The reaction mixtures are then immobilized on a Streptavidin-coated plate (Pierce). […] For the HTRF assay, 10 nM of enzyme are incubated with compounds in the presence of 20, 100, 200, or 500 μM of ATP in a buffer with 20 mM of Hepes pH7.5, 20 mM of MgCl2, 0.2% of Tween 20 and 1 mM of DTT at room temperature for 2 hours.

T1 sequence (Q99558 400-655 limits assumed): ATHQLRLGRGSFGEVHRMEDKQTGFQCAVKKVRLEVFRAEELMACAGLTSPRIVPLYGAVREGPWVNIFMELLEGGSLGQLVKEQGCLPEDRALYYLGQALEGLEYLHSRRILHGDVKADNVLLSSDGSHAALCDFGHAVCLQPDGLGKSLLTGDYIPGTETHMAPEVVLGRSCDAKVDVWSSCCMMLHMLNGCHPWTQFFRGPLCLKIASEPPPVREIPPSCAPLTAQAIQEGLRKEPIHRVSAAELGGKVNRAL

Ki	SMILES
< 1000 nM	COCCOc1cnc(N)nc1-c1c[nH]c2ccc(C#CC(C)(C)O)cc12 [Example 224, 4-(3-(2-Amino-5-(2-methoxyethoxy)-4-pyrimidinyl)-1H-indol-5-yl)-2-methyl-3-butyn-2-ol]

Same assay, conditions: truncated NIK (catalytic domain only), autophosphorylation; 10 nM enzyme; 20, 100, 200 or 500 μM ATP; room temperature, 2 hours; read-out: Ki activity in the homogenous time resolved fluorescence (HTRF) assay for NIK

Ki	SMILES
< 1000 nM	C[C@@](O)(C#Cc1ccc2c(c1)N(c1nc(N)ncc1Cl)CC2(CO)CO)c1nccs1 (single isomer, unassigned) [Example 61]
< 1000 nM	Cc1cc(C(C)(O)C#Cc2ccc(OC3CCOCC3)c(Nc3nc(N)ncc3Cl)c2)no1 (centres unmarked) [Example 148, 4-(3-(2-Amino-5-chloropyrimidin-4-ylamino)-4-(tetrahydro-2H-pyran-4-yloxy)phenyl)-2-(5-methylisoxazol-3-yl)but-3-yn-2-ol]
< 1000 nM	CC1(CO)CN(c2nc(N)ncc2F)c2cc(C#CC3(O)CCCC3)ccc21 (centres unmarked) [Example 66, 1-((1-(2-amino-5-fluoro-4-pyrimidinyl)-3-(hydroxymethyl)-3-methyl-2,3-dihydro-1H-indol-6-yl)ethynyl)cyclopentanol]
< 1000 nM	Nc1ncc(Cl)c(-c2cn(CC3CCCN3)c3ccc(C#CC4(O)CCCC4)cc23)n1 (centres unmarked) [Example 113, 1-(2-(3-(2-amino-5-chloropyrimidin-4-yl)-1-(pyrrolidin-2-ylmethyl)-1H-indol-5-yl)ethynyl)cyclopentanol]
< 1000 nM	CN1CCC(n2cc(-c3nc(N)ncc3Cl)c3cc(C#CC4(O)CCCC4)ccc32)C1 (centres unmarked) [Example 139, 1-(2-(3-(2-amino-5-chloropyrimidin-4-yl)-1-(1-methylpyrrolidin-3-yl)-1H-indol-5-yl)ethynyl)cyclopentanol]
< 1000 nM	COc1cc(Nc2nccc(-n3ccc4ccc(C#CC5(O)CCCC5)cc43)n2)cc(OC)c1OC [Example 259, 1-((1-(2-((3,4,5-tris(methyloxy)phenyl)amino)-4-pyrimidinyl)-1H-indol-6-yl)-ethynyl)cyclopentanol]
< 1000 nM	CC1(CO)CN(c2nc(N)nc3[nH]cnc23)c2cc(C#CC3(O)CCCC3)ccc21 (centres unmarked) [Example 74, 1-((1-(2-amino-9H-purin-6-yl)-3-(hydroxymethyl)-3-methyl-2,3-dihydro-1H-indol-6-yl)ethynyl)cyclopentanol]
< 1000 nM	CC(O)(C#Cc1ccc2c(c1)N(c1ccnc(N)n1)CC2)c1ccccc1 (centres unmarked) [Example 267, 4-(1-(2-Amino-4-pyrimidinyl)-2,3-dihydro-1H-indol-6-yl)-2-phenyl-3-butyn-2-ol]
< 1000 nM	Cc1cc(C(C)(O)C#Cc2ccc3c(c2)N(c2nc(N)ncc2Cl)CC32CCOCC2)no1 (racemic) [Example 210, (rac)-4-(1-(2-Amino-5-chloro-4-pyrimidinyl)-1,2,2′,3′,5′,6′-hexahydrospiro[indole-3,4′-pyran]-6-yl)-2-(5-methyl-3-isoxazolyl)-3-butyn-2-ol]
< 1000 nM	CN1CCC2(C1)CN(c1nc(N)nc3[nH]cnc13)c1cc(C#CC3(O)CCCC3)ccc12 (centres unmarked) [Example 191, 1-((1-(2-Amino-9H-purin-6-yl)-1′-methyl-1,2-dihydrospiro[indole-3,3′-pyrrolidin]-6-yl)ethynyl)cyclopentanol]
< 1000 nM	C[C@@](O)(C#Cc1ccc2c(c1)N(c1ncncc1Cl)CC21CCOCC1)c1nccs1 [Example 32, (2R)-4-[1-(5-chloropyrimidin-4-yl)-1,2,2′,3′,5′,6′-hexahydrospiro[indole-3,4′-pyran]-6-yl]-2-(1,3-thiazol-2-yl)but-3-yn-2-ol]
< 1000 nM	CC(O)(C#Cc1ccc2c(c1)N(c1ncns1)CC2(C)C)c1nccs1 (centres unmarked) [Example 12, 4-(3,3-dimethyl-1-(1,2,4-thiadiazol-5-yl)indolin-6-yl)-2-(thiazol-2-yl)but-3-yn-2-ol]
< 1000 nM	CC(C)(O)C#Cc1ccc2c(c1)N(c1ccnc(N)n1)CC2 [Example 271, 4-(1-(2-Amino-4-pyrimidinyl)-2,3-dihydro-1H-indol-6-yl)-2-methyl-3-butyn-2-ol]
< 1000 nM	Cc1[nH]c2ccc(C#CC(C)(O)c3nccs3)cc2c1-c1ccncc1 (centres unmarked) [Example 295, 4-(2-Methyl-3-(4-pyridinyl)-1H-indol-5-yl)-2-(1,3-thiazol-2-yl)-3-butyn-2-ol]
1000 to 30000 nM	CNc1ncc2c(n1)-c1c(nc3ccc(C#CC4(O)CCCC4)cn13)CCC2 [Example 251, 1-((2-(methylamino)-6,7-dihydro-5H-pyrido[1″,2″:1′,2′]imidazo[4′,5′:6,7]-cyclohepta[1,2-d]pyrimidin-11-yl)ethynyl)cyclopentanol]
1000 to 30000 nM	Cc1nc(C(C)(O)C#Cc2ccc3c(c2)N(c2ccnc(N)n2)CC3)sc1C (centres unmarked) [Example 285, 4-(1-(2-Amino-4-pyrimidinyl)-2,3-dihydro-1H-indol-6-yl)-2-(4,5-dimethyl-1,3-thiazol-2-yl)-3-Butyn-2-ol]
< 1000 nM	COCCN1Cc2cnc(N)nc2-c2c(n(C)c3ccc(C#CC4(O)CCCC4)cc23)C1=O [Example 246, 2-Amino-1′-((1-hydroxycyclopentyl)ethynyl)-6-(2-methoxyethyl)-8-methyl-5,8-dihydropyrimido[4′,5′:5,6]azepino[3,4-b]indol-7(6H)-one]

Ki	SMILES
< 1000 nM	Nc1ncc(Cl)c(N2CC3(CCOCC3)c3ccc(C#CC4(O)CCCC4)cc32)n1 [Example 205, 1-((1-(2-Amino-5-chloro-4-pyrimidinyl)-1,2,2′,3′,5′,6′-hexahydrospiro[indole-3,4′-pyran]-6-yl)ethynyl)cyclopentanol]
< 1000 nM	CC1(CO)CN(c2nc(N)ncc2Cl)c2cc(C#CC3(O)CCCC3)ccc21 (single isomer, unassigned) [Example 55, 1-(((3R*)-1-(2-amino-5-chloro-4-pyrimidinyl)-3-(hydroxymethyl)-3-methyl-2,3-dihydro-1H-indol-6-yl)ethynyl)cyclopentanol]
< 1000 nM	Cn1c2c(c3cc(C#CC4(O)CCCC4)ccc31)-c1nc(N)ncc1CN(Cc1ccccn1)C2=O [Example 247, 2-Amino-1′-((1-hydroxycyclopentyl)ethynyl)-8-methyl-6-(2-pyridinylmethyl)-5,8-dihydropyrimido[4′,′:5,6]azepino[3,4-b]indol-7(6H)-one]
< 1000 nM	Nc1nc(N2CCc3ccc(C#CC4(O)CCCC4)cc32)c2nc[nH]c2n1 [Example 72, 1-((1-(2-amino-9H-purin-6-yl)-2,3-dihydro-1H-indol-6-yl)ethynyl)cyclopentanol]
< 1000 nM	Cc1cc([C@](C)(O)C#Cc2ccc3c(c2)N(c2ncns2)CC3(C)C)no1 [Example 14, (R)-4-(3,3-dimethyl-1-(1,2,4-thiadiazol-5-yl)indolin-6-yl)-2-(5-methylisoxazol-3-yl)but-3-yn-2-ol]
1000 to 30000 nM	CC(O)(C#Cc1cncc(C(=O)Nc2ccncn2)c1)c1nccs1 (centres unmarked) [Example 168, 5-(3-Hydroxy-3-(thiazol-2-yl)but-1-ynyl)-N-(pyrimidin-4-yl)nicotinamide]
< 1000 nM	CN1CC2(C1)CN(c1nc(N)ncc1Cl)c1cc(C#CC3(O)CCCC3)ccc12 [Example 180, 1-((1′-(2-amino-5-chloropyrimidin-4-yl)-1-methylspiro[azetidine-3,3′-indoline]-6′-yl)ethynyl)cyclopentanol]
< 1000 nM	Nc1ncc(Cl)c(N2CC(CO)(CO)c3ccc(C#CC4(O)CCCC4)cc32)n1 [Example 62, 1-((1-(2-amino-5-chloro-4-pyrimidinyl)-3,3-bis(hydroxymethyl)-2,3-dihydro-1H-indol-6-yl)ethynyl)cyclopentanol]
1000 to 30000 nM	Cc1cc([C@@](C)(O)C#Cc2ccc(F)c(Nc3nc(N)ncc3Cl)c2)no1 [Example 177, (S)-4-(3-(2-amino-5-chloropyrimidin-4-ylamino)-4-fluorophenyl)-2-(5-methylisoxazol-3-yl)but-3-yn-2-ol]
< 1000 nM	Cc1ccc(C(C)(O)C#Cc2ccc3c(c2)N(c2ccnc(N)n2)CC3)o1 (centres unmarked) [Example 275, 4-(1-(2-Amino-4-pyrimidinyl)-2,3-dihydro-1H-indol-6-yl)-2-(5-methyl-2-furanyl)-3-Butyn-2-ol]
< 1000 nM	Cc1cc([C@@](C)(O)C#Cc2ccc3c(c2)N(c2ncns2)CC3(C)C)no1 [Example 15, (S)-4-(3,3-dimethyl-1-(1,2,4-thiadiazol-5-yl)indolin-6-yl)-2-(5-methylisoxazol-3-yl)but-3-yn-2-ol]
< 1000 nM	CC(O)(C#Cc1ccc2c(c1)N(c1nc(N)ncc1Cl)CC2)c1cnccn1 (centres unmarked) [Example 4, 4-(1-(2-amino-5-chloropyrimidin-4-yl)indolin-6-yl)-2-(pyrazin-2-yl)but-3-yn-2-ol]
< 1000 nM	Cc1ccc(C#CC(C)(O)c2nccs2)cc1Nc1nc(N)ncc1Cl (centres unmarked) [Example 160, 4-(3-(2-Amino-5-chloropyrimidin-4-ylamino)-4-methylphenyl)-2-(thiazol-2-yl)but-3-yn-2-ol]
< 1000 nM	Cc1cnc(C(C)(O)C#Cc2ccc3c(c2)N(c2ccnc(N)n2)CC3)s1 (centres unmarked) [Example 289, 4-(1-(2-Amino-4-pyrimidinyl)-2,3-dihydro-1H-indol-6-yl)-2-(5-methyl-1,3-thiazol-2-yl)-3-Butyn-2-ol]
< 1000 nM	Cn1cc(-c2nc(N)ncc2Cl)c2cc(C#CC(C)(O)c3nccs3)ccc21 (centres unmarked) [Example 116, 4-(3-(2-amino-5-chloropyrimidin-4-yl)-1-methyl-1H-indol-5-yl)-2-(thiazol-2-yl)but-3-yn-2-ol]
< 1000 nM	Cc1cc([C@](C)(O)C#Cc2ccc3c(c2)N(c2nc(N)ncc2Cl)CC32CCOCC2)on1 (single isomer, unassigned) [Example 31]
< 1000 nM	Cc1cc(C(C)(O)C#Cc2ccc(C)c(Nc3nc(N)ncc3Cl)c2)no1 (centres unmarked) [Example 161, 4-(3-(2-Amino-5-chloropyrimidin-4-ylamino)-4-methylphenyl)-2-(5-methylisoxazol-3-yl)but-3-yn-2-ol]
